Measured values published in the supplement of paper PMC10307832.

What was measured:
Test in all cases: relative viability (nuclei count vs DMSO), 5 days (fraction); higher = more cells survive
[1] = system: A-427
Outline: (§1)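 One day after seeding in 1536-well plates, lung cancer cell lines were dosed by pin tool. Dosing was either single-drug or a fixed anchor-drug dose plus five library-drug doses (not always all listed) in √10 steps. After 5 days, nuclei were stained in one fix-and-stain step and counted on 4× images, and relative viability is the nuclei count of treated wells over that of vehicle wells, given as the median of duplicate plates.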

[2] = system: EMC-BAC-2
Outline: as §1

[3] = system: HARA
Outline: as §1

[4] = system: HOP-62
Outline: as §1

[5] = system: LK-2
Outline: as §1

[6] = system: LXF-289
Outline: as §1

[7] = system: NCI-H1792
Outline: as §1

[8] = system: NCI-H1944
Outline: as §1

[9] = system: NCI-H1993
Outline: as §1

[10] = system: NCI-H2009
Outline: as §1

[11] = system: NCI-H2170
Outline: as §1

[12] = system: NCI-H2228
Outline: as §1

[13] = system: NCI-H3122
Outline: as §1

[14] = system: NCI-H322M
Outline: as §1

[15] = system: NCI-H522
Outline: as §1

[16] = system: NCI-H596
Outline: as §1

[17] = system: NCI-H727
Outline: as §1

[18] = system: PC-3 [JPC-3]
Outline: as §1

[19] = system: SK-MES-1
Outline: as §1

[20] = system: SW 1573
Outline: as §1

[21] = system: SW 900
Outline: as §1

Compound: CCN(CC)CCCCNc1ncc2cc(-c3cc(OC)cc(OC)c3)c(NC(=O)NC(C)(C)C)nc2n1 + CC(=O)Nc1cccc(-n2c(=O)n(C3CC3)c(=O)c3c(Nc4ccc(I)cc4F)n(C)c(=O)c(C)c32)c1 [Trametinib] (partner 0.02 µM)
- relative viability ([1]; first compound 0.01 µM): 0.784
- relative viability ([1]; first compound 0.03162 µM): 0.68
- relative viability ([1]; first compound 0.1 µM): 0.694
- relative viability ([1]; first compound 0.3162 µM): 0.595
- relative viability ([1]; first compound 1 µM): 0.466
- relative viability ([2]; first compound 0.03162 µM): 0.986
- relative viability ([2]; first compound 0.1 µM): 0.917
- relative viability ([2]; first compound 0.3162 µM): 0.847
- relative viability ([2]; first compound 1 µM): 0.83
- relative viability ([3]; first compound 0.01 µM): 0.589
- relative viability ([3]; first compound 0.03162 µM): 0.632
- relative viability ([3]; first compound 0.1 µM): 0.645
- relative viability ([3]; first compound 0.3162 µM): 0.579
- relative viability ([3]; first compound 1 µM): 0.466
- relative viability ([4]; first compound 0.01 µM): 0.452
- relative viability ([4]; first compound 0.03162 µM): 0.395
- relative viability ([4]; first compound 0.1 µM): 0.398
- relative viability ([4]; first compound 0.3162 µM): 0.37
- relative viability ([4]; first compound 1 µM): 0.339
- relative viability ([5]; first compound 0.01 µM): 0.856
- relative viability ([5]; first compound 0.03162 µM): 0.649
- relative viability ([5]; first compound 0.1 µM): 0.756
- relative viability ([5]; first compound 0.3162 µM): 0.597
- relative viability ([5]; first compound 1 µM): 0.299
- relative viability ([6]; first compound 0.01 µM): 0.704
- relative viability ([6]; first compound 0.03162 µM): 0.703
- relative viability ([6]; first compound 0.1 µM): 0.637
- relative viability ([6]; first compound 0.3162 µM): 0.759
- relative viability ([6]; first compound 1 µM): 0.644
- relative viability ([7]; first compound 0.01 µM): 0.432
- relative viability ([7]; first compound 0.03162 µM): 0.42
- relative viability ([7]; first compound 0.1 µM): 0.415
- relative viability ([7]; first compound 0.3162 µM): 0.518
- relative viability ([7]; first compound 1 µM): 0.232
- relative viability ([8]; first compound 0.01 µM): 0.428
- relative viability ([8]; first compound 0.03162 µM): 0.398
- relative viability ([8]; first compound 0.1 µM): 0.403
- relative viability ([8]; first compound 0.3162 µM): 0.416
- relative viability ([8]; first compound 1 µM): 0.401
- relative viability ([9]; first compound 0.01 µM): 0.567
- relative viability ([9]; first compound 0.03162 µM): 0.5
- relative viability ([9]; first compound 0.1 µM): 0.53
- relative viability ([9]; first compound 0.3162 µM): 0.557
- relative viability ([9]; first compound 1 µM): 0.0258
- relative viability ([10]; first compound 0.01 µM): 0.264
- relative viability ([10]; first compound 0.03162 µM): 0.244
- relative viability ([10]; first compound 0.1 µM): 0.266
- relative viability ([10]; first compound 0.3162 µM): 0.254
- relative viability ([10]; first compound 1 µM): 0.192
- relative viability ([11]; first compound 0.01 µM): 0.987
- relative viability ([11]; first compound 0.03162 µM): 0.929
- relative viability ([11]; first compound 0.1 µM): 0.894
- relative viability ([11]; first compound 0.3162 µM): 1
- relative viability ([11]; first compound 1 µM): 0.719
- relative viability ([12]; first compound 0.01 µM): 0.449
- relative viability ([12]; first compound 0.03162 µM): 0.551
- relative viability ([12]; first compound 0.1 µM): 0.311
- relative viability ([12]; first compound 0.3162 µM): 0.543
- relative viability ([12]; first compound 1 µM): 0.309
- relative viability ([13]; first compound 0.01 µM): 0.246
- relative viability ([13]; first compound 0.03162 µM): 0.229
- relative viability ([13]; first compound 0.1 µM): 0.226
- relative viability ([13]; first compound 0.3162 µM): 0.239
- relative viability ([13]; first compound 1 µM): 0.247
- relative viability ([14]; first compound 0.01 µM): 0.514
- relative viability ([14]; first compound 0.03162 µM): 0.49
- relative viability ([14]; first compound 0.1 µM): 0.436
- relative viability ([14]; first compound 0.3162 µM): 0.339
- relative viability ([14]; first compound 1 µM): 0.488
- relative viability ([15]; first compound 0.01 µM): 0.799
- relative viability ([15]; first compound 0.03162 µM): 0.772
- relative viability ([15]; first compound 0.1 µM): 0.787
- relative viability ([15]; first compound 0.3162 µM): 0.664
- relative viability ([15]; first compound 1 µM): 0.883
- relative viability ([16]; first compound 0.01 µM): 0.865
- relative viability ([16]; first compound 0.03162 µM): 0.879
- relative viability ([16]; first compound 0.1 µM): 0.677
- relative viability ([16]; first compound 0.3162 µM): 0.778
- relative viability ([16]; first compound 1 µM): 0.646
- relative viability ([17]; first compound 0.01 µM): 0.387
- relative viability ([17]; first compound 0.03162 µM): 0.412
- relative viability ([17]; first compound 0.1 µM): 0.369
- relative viability ([17]; first compound 0.3162 µM): 0.362
- relative viability ([17]; first compound 1 µM): 0.362
- relative viability ([18]; first compound 0.03162 µM): 0.698
- relative viability ([18]; first compound 0.1 µM): 0.766
- relative viability ([18]; first compound 0.3162 µM): 0.72
- relative viability ([18]; first compound 1 µM): 0.683
- relative viability ([19]; first compound 0.01 µM): 0.601
- relative viability ([19]; first compound 0.03162 µM): 0.562
- relative viability ([19]; first compound 0.1 µM): 0.525
- relative viability ([19]; first compound 0.3162 µM): 0.584
- relative viability ([19]; first compound 1 µM): 0.512
- relative viability ([20]; first compound 0.01 µM): 0.455
- relative viability ([20]; first compound 0.03162 µM): 0.539
- relative viability ([20]; first compound 0.1 µM): 0.605
- relative viability ([20]; first compound 0.3162 µM): 0.516
- relative viability ([20]; first compound 1 µM): 0.433
- relative viability ([21]; first compound 0.01 µM): 0.787
- relative viability ([21]; first compound 0.03162 µM): 0.916
- relative viability ([21]; first compound 0.1 µM): 0.947
- relative viability ([21]; first compound 0.3162 µM): 0.665
- relative viability ([21]; first compound 1 µM): 0.522
